According to PubChem BioAssay (NCI):
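Step 1: Grow cells in 96-well plates. Step 2: Expose to compound for 48 hours at 5 concentrations. Step 3: Interpolate endpoints linearly; if unreached, use highest concentration. Abbreviation: GI50, concentration required for 50% inhibition of growth. TGI denotes the concentration required for complete inhibition of growth.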

Assays:
Assay in all cases: inhibition of tumour cell growth, NCI panel, 48 h
[1] = test system: TK-10 renal
[2] = test system: M14 melanoma
[3] = test system: SR leukemia
[4] = test system: UACC-62 melanoma
[5] = test system: RPMI-8226 leukemia
[6] = test system: HCT-116 colon
[7] = test system: MDA-MB-435
[8] = test system: NCI-H460 lung
[9] = test system: MDA-MB-231 breast
[10] = test system: A498 renal

SMILES	GI50 [1] [µM]	TGI [1] [µM]	GI50 [2] [µM]	TGI [2] [µM]	GI50 [3] [µM]	GI50 [4] [µM]	TGI [4] [µM]	GI50 [5] [µM]	TGI [5] [µM]	GI50 [6] [µM]	TGI [6] [µM]	GI50 [7] [µM]	TGI [7] [µM]	GI50 [8] [µM]	TGI [8] [µM]	GI50 [9] [µM]	TGI [9] [µM]	GI50 [10] [µM]	TGI [10] [µM]	TGI [3] [µM]
COc1ccc2c(=O)cc(-c3ccccc3)[nH]c2c1	> 100	> 100	5.93	> 100	0.258	0.431	> 100	0.564	> 58.4	0.446	> 100	0.18	0.523	0.397	> 42	1.92	> 100	0.263	5.32	–
COc1cc(F)c(F)c(Nc2ccc(I)cc2F)c1NS(=O)(=O)C1(C[C@H](O)CO)CC1	0.135	> 10	0.0242	1.59	6.56	0.0158	0.172	2.66	> 10	0.201	> 10	0.0659	> 10	1.62	> 10	0.217	> 9.46	0.0936	0.478	> 10
[C](#Cc1ccccc1)[Hg][C]#Cc1ccccc1	23.8	50.7	75.1	> 100	23.5	24.3	53.7	13.1	> 100	72.5	> 100	43.2	> 100	86.2	> 100	20.8	44.8	> 100	> 100	> 100
C[C@@H]1C[C@H](C)CN(S(=O)(=O)c2ccc3c(NO)c4ccc(S(=O)(=O)N5C[C@H](C)C[C@H](C)C5)cc4c(N=O)c3c2)C1	0.168	0.321	0.103	0.231	0.0367	0.181	0.345	0.24	0.669	0.032	0.115	0.181	0.397	0.0565	0.222	0.0738	0.234	–	> 1	0.215
C=CCNc1nc2c(s1)C(=O)c1ccccc1C2=O	–	34.2	–	16.7	–	–	9.37	–	17.4	–	13.6	–	3.31	–	28.5	–	23.8	–	34	> 100
O=C1CC2C(=O)c3ccccc3CC2c2ccccc21 (stereo not drawn)	–	> 100	–	> 100	–	–	> 100	–	64	–	> 100	–	55.3	–	> 100	–	> 100	–	> 100	81.6
CCc1ccc(NC(=O)NC(=O)c2ccccc2[N+](=O)[O-])cc1Oc1ncc(Cl)cn1	–	> 100	–	> 100	–	–	> 100	–	> 4.64	–	3.62	–	0.0332	–	0.0508	–	52.3	–	9.1	> 100
Cn1c(-c2c(N)n(Nc3cccc(Cl)c3)c3nc(C#N)c(C#N)nc23)nc2ccccc21	12.9	> 50	6.51	20	2.53	4.59	14.9	3.53	> 50	8.54	> 50	3.28	14	13.3	> 50	6.47	17.7	6.56	16.6	41.4
FC(F)(c1ccc2ncccc2c1)c1nnc2ccc(-c3ccncc3)nn12	73.1	> 100	> 100	> 100	> 100	> 100	> 100	53.3	> 100	95.8	> 100	> 100	> 100	> 100	> 100	31	> 100	19.3	> 100	> 100
NS(=O)(=O)c1ccc(-n2nc3c(c2-c2ccc(Cl)cc2)Cc2ccccc2-3)cc1	19.5	35.6	13.1	31.5	5.82	13.7	26.9	10.4	24.7	4.06	21.3	17.8	32.6	32.1	> 100	14.8	30.1	4.7	19.1	21.3
